Here are results for 1 compound from patent US7250428B2, “Cetylpyridinium salt of an anti-inflammatory agent and pharmaceutical compositions containing it” (Aziende Chimiche Riunite Angelini Francesco A.C.R.A.F. …, priority 2003, dated 2007).

This data set can be described thus: stability in the presence of water. It counts as physicochemical.

Turning to `CCCCCCCCCCCCCCCC[n+]1ccccc1.O=C([O-])Cc1ccccc1Nc1c(Cl)cccc1Cl` [cetylpyridinium salt of diclofenac, cetylpyridinium (1-hexadecylpyridinium) salt of diclofenac], the “stability in the presence of water” value was “virtually infinite”.
